Consider six molecules from PMC5388777 (Frontiers in Psychiatry, 2017).

Structures are written as SMILES. “And” between values parts separate entries of the source, which are not always exact repeats. Equal values may be shown once.

Data set [1] deals with male ICR mice. Nature of the data set: Tail flick assay (thermal nociception). It counts as in vivo. To be noted: for Tail flick latency after antagonist alone: given 24 h before vehicle, JDTic 10 mg/kg, beta-FNA 40 mg/kg s.c.; for Antinociception (%MPE) versus vehicle: 60-min post-injection, s.c., PPL-101 0.3-10 mg/kg, PPL-103 0.3-3 mg/kg. For orientation: In hot-plate and tail-flick tests a longer latency is read as antinociception.

In data set [2] the target is T1, delta opioid receptor (Homo sapiens, UniProt P41143).
T1 construct: expressed in transfected cells; membranes prepared
T1 sequence (P41143 whole entry): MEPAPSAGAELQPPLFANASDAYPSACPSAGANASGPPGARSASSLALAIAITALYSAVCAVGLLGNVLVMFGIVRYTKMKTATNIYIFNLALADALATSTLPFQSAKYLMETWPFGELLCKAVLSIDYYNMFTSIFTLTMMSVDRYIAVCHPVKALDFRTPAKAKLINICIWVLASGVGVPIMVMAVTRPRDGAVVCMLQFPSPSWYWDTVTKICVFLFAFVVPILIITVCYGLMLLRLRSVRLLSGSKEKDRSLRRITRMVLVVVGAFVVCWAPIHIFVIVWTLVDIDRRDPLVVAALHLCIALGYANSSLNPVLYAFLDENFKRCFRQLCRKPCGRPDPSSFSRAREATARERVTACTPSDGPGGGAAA
Nature of the data set: [35S]GTPγS binding, CHO cell membranes. To be noted: for Delta % Stim.: [35S]GTPγS binding, mean ± SEM. It counts as biochemical.

The target in data set [3] is T2, kappa opioid receptor (Homo sapiens, UniProt P41145).
T2 construct: expressed in transfected cells; membranes prepared
T2 sequence (P41145 whole entry): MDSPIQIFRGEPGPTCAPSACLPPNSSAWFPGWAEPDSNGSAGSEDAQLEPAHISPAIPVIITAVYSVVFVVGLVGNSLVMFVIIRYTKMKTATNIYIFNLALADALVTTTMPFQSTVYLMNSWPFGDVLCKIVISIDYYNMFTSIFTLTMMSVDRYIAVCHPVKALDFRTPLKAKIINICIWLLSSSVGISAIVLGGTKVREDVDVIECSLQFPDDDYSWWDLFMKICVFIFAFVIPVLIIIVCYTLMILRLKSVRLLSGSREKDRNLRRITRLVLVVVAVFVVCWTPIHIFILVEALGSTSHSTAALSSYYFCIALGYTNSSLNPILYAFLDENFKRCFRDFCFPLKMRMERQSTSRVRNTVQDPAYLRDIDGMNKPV
Nature of the data set: biochemical.

In data set [4] the target is T3, mu opioid receptor (Homo sapiens, UniProt P35372).
T3 construct: expressed in transfected cells; membranes prepared
T3 sequence (P35372 whole entry): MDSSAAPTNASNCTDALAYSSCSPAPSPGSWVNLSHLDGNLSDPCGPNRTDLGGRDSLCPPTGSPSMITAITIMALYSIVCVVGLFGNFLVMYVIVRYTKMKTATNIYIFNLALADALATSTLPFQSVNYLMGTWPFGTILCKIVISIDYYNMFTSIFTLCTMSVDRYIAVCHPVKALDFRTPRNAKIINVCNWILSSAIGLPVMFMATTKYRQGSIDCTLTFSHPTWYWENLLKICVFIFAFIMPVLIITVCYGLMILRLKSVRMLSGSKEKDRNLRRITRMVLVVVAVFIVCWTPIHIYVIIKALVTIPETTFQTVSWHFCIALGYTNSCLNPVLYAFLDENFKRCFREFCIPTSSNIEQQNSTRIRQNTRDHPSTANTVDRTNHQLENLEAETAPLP
Format: biochemical.

The target in data set [5] is T2, kappa opioid receptor. Kind of data set: biochemical. To be noted: Receptor binding Ki.
Data set [6] addresses T1, delta opioid receptor. Nature of the data set: biochemical. The conditions noted are these: Receptor binding Ki.
The test system of data set [7] is male Sprague-Dawley rats. Kind of data set: Plantar test (paw withdrawal latency). Format: in vivo. The conditions noted are these: U-69,593 0.3 mg/kg.
Data set [8] deals with male ICR mice. Kind of data set: Global activity during CPP conditioning. Format: in vivo. The conditions noted are these: s.c.; for Global activity versus vehicle controls: morphine 15 mg/kg (first injection), PPL-101 and PPL-103 3.0 mg/kg (first and third injections).
Data set [9] concerns male Sprague-Dawley rats. Kind of data set: Intravenous self-administration (FR-1 and PR schedules).
Data set [10] has as its system male ICR mice. Nature of the data set: Conditioned place preference (CPP) paradigm. It counts as in vivo. The conditions noted are these: s.c., three drug sessions; morphine 15 mg/kg, PPL-101 1-3 mg/kg, PPL-103 0.3-3 mg/kg.
Data set [11] concerns non-human primates. To be noted: ref Harris et al. unpublished observation; cited from earlier work.

As for `COC(=O)C=CC(=O)NC1CCC2(O)C3Cc4ccc(O)c5c4C2(CCN3CC2CC2)C1O5.Cl` (stereo not drawn) [beta-FNA, beta-funaltrexamine HCl, reference compound], the “Tail flick latency after antagonist alone” value in data set [1] is reported as “have no effect on tail flick latency in mice”.
On to `C[C@H]1[C@H]2Cc3ccc(O)cc3[C@]1(C)CCN2CC1CC1` [Cyclazocine, cycloproplymethyl-benzomorphan, reference compound], for which, in data set [2], the “Delta % Stim.” value was determined as 82 ± 9%. Moreover, in [3], the “Kappa % Stim.” value stood at 80 ± 9%. Moreover, the “Mu % Stim.” value in [4] stood at 33 ± 18%. In addition, the Ki (as a rule, the equilibrium dissociation constant of an inhibitor or competing ligand from its target) in [5] stood at 0.1 ± 0.02 nM; in data set [6] it was 0.8 ± 0.05 nM.
Take `CC(C)[C@@H](CN1CC[C@@](C)(c2cccc(O)c2)[C@@H](C)C1)NC(=O)[C@H]1Cc2ccc(O)cc2CN1` [JDTic, (3R)-7-hydroxy-N-[(1S)-1-[[(3R,4R)-4-(3-hydroxyphenyl)-3,4-dimethyl-1-piperidinyl]methyl]-2-methylpropyl]-1,2,3,4-tetrahydro-3-isoquinoline-carboxamide]: the “Blockade of U-69,593-induced antinociception” value in data set [7] (JDTic 10 mg/kg single dose) was “able to block the antinociceptive effect U-69,593”. Also, the “Antinociception (paw withdrawal latency)” value in data set [7] (JDTic 10 mg/kg single treatment one week before) is reported as “by itself did not”. Moreover, the “Tail flick latency after antagonist alone” value in [1] is given as “have no effect on tail flick latency in mice”.
Regarding `CN1CC[C@]23c4c5ccc(O)c4O[C@H]2[C@@H](O)C=C[C@H]3[C@H]1C5` [Morphine, reference compound], in data set [8], the “Global activity versus vehicle controls” value is reported as “increase in global activity after the first drug injection relative to vehicle controls”. The “Global activity after third versus first drug injection” value in data set [8] (morphine 15 mg/kg, PPL-101 3 mg/kg) is on record as “increase in activity following the third drug injection relative to the first drug injection”. In [1] (0.5, 1, 2, 4 h post-injection, PPL-101 0.3-10 mg/kg s.c., morphine 15 mg/kg), the “Time course of antinociception (%MPE) versus vehicle” value is recorded as “anticipated increase in %MPE at all the time points compared to vehicle controls”. Moreover, the “Antinociception (%MPE) versus vehicle” value in [1] (morphine 15 mg/kg) was “produced the maximal effect in increase in tail flick relative to vehicle controls”. The “Effect of JDTic pretreatment on the compound's antinociception” value in [1] (JDTic 10 mg/kg s.c. 24 h before) is “not altered by the kappa antagonist JDTic”. Moreover, the “Effect of beta-FNA pretreatment on the compound's antinociception” value in data set [1] (beta-FNA 40 mg/kg s.c. 24 h before) is “completely inhibited by the mu opioid antagonist beta-FNA”. Also, the “Effect of JDTic on self-administration of the compound” value in data set [9] (100 µg/kg/infusion, FR1TO20, JDTic 10 mg/kg i.p., seven sessions versus baseline) is on record as “no significant effect of JDTic on morphine self-administration”. Besides, the “Average responses on the morphine-associated lever” value in data set [9] (100 µg/kg/infusion, last 3 days prior to PPL-101 self-administration, mean ± SEM) is 29.0 ± 5.8 and 27.2 ± 6.1 and 32.2 ± 12.6. In [10], the “Acquisition of CPP (difference score) versus vehicle controls” value is given as “exhibited a significant CPP”.
In the case of `CC(C1CC1)N1CCC23CCCCC2C1Cc1ccc(O)cc13` (stereo not drawn) [PPL-103, α-methyl-cyclopropylmethyl-morphinan], in data set [2], the midpoint of the response, the EC50, lay at 2.99 ± 0.92 nM and the “Delta % Stim.” value was 41.7 ± 5.0%. Further, in data set [3], the EC50 (in general, the concentration giving half of the maximal effect) was 9.01 ± 2.64 nM and the “Kappa % Stim.” value is recorded as 39.8 ± 3.9%. Moreover, the Ki in data set [5] came to 2.47 ± 0.105 nM. This molecule also yielded an inhibition constant (Ki) in [6] of 0.29 ± 0.03 nM. Further, in data set [8], the “Global activity versus vehicle controls” value is “decreases in global activity relative to vehicle controls following the first and third drug injections”. Besides, in [1] (morphine 15 mg/kg), the “Antinociception (%MPE) versus vehicle” value is reported as “potent antinociception at all doses tested”. In addition, the “Dose giving maximal antinociception equivalent to morphine, as fraction of morphine's dose” value in data set [1] (mice) is 1/10. For the same molecule, in data set [9] (30-100 µg/kg/infusion i.v., versus morphine 100 µg/kg/infusion), the “Number of infusions under PR schedule” value is reported as “significantly decreased compared to the morphine group”. In [9] (30 and 100 µg/kg/infusion i.v., versus morphine 100 µg/kg/infusion), the “Self-administration under FR-1 schedule when substituted for morphine” value is “markedly decreased as compared to responses for morphine across all test sessions”. Further, the “Acquisition of CPP (difference score) versus vehicle controls” value in [10] is “did not reveal any significant difference”. Besides, the “Substitution for morphine in single-dose suppression test” value in data set [11] is reported as “substituted for morphine”.
In the case of `C[C@@H](NC(=O)[C@@H](N)Cc1ccc(O)cc1)C(=O)NCC(=O)N(C)[C@@H](Cc1ccccc1)C(=O)NCCO` [DAMGO, [D-Ala2, N-MePhe4, Gly-ol]-enkephalin, reference compound], in data set [3], the “Kappa % Stim.” value was 62 ± 21.0%. Further, the “Mu % Stim.” value in [4] is 100%.
